# How the values were obtained:
# Plasmodium falciparum [1] = assay: Antiplasmodial activity chloroquine-sensitive Plasmodium falciparum 3D7 infected in human A+ erythrocytes assessed as reduction of [3H]hypoxanthine incorporation after 24 hrs by scintillation counting; format: functional, organism-based
# Plasmodium falciparum [2] = assay: Antiplasmodial activity chloroquine-resistant Plasmodium falciparum K1 infected in human A+ erythrocytes assessed as reduction of [3H]hypoxanthine incorporation after 24 hrs by scintillation counting; format: functional, organism-based
# Plasmodium falciparum [3] = assay: Antiplasmodial activity chloroquine-resistant Plasmodium falciparum W2 using YOYO-1 staining after 48 hrs by FACS analysis; format: functional, organism-based; conditions: W2, 48 h
# physchem [4] = conditions: 0.01 M HCl, pH 2
# physchem [5] = conditions: phosphate buffered saline, pH 7.4
# CHO = assay: Cytotoxicity against CHO cells by MTT assay; format: cell-based; conditions: Cricetulus griseus
SMILES,IC50 (Plasmodium falciparum [1]) [nM],IC50 (Plasmodium falciparum [2]) [nM],IC50 (Plasmodium falciparum [3]) [nM],solubility kinetic at 2 h (physchem [4]) [µM],solubility kinetic at 2 h (physchem [5]) [µM],IC50 (CHO) [nM]
Clc1ccc2c(Nc3cccc(C(c4nnnn4CCN4CCOCC4)N4CCCC4)c3)ccnc2c1 (stereo not drawn),220,310,3390,,,
CN(C)C(c1ccccc1Nc1ccnc2cc(Cl)ccc12)c1nnnn1C(C)(C)C (stereo not drawn),3500,3500,3380,,,
CN(C)C(c1ccc(Nc2ccnc3cc(Cl)ccc23)cc1)c1nnnn1C(C)(C)C (stereo not drawn),12,12,40,,,
CN(C)C(c1cccc(Nc2ccnc3cc(Cl)ccc23)c1)c1nnn[nH]1 (stereo not drawn),487,2980,1170,> 200,72.6,
CCN(CC)C(c1cccc(Nc2ccnc3cc(Cl)ccc23)c1)c1nnn[nH]1 (stereo not drawn),164,54,475,> 200,149,
Clc1ccc2c(Nc3cccc(C(c4nnn[nH]4)N4CCCC4)c3)ccnc2c1 (stereo not drawn),1100,49,181,> 200,150,
Clc1ccc2c(Nc3cccc(C(c4nnn[nH]4)N4CCCCC4)c3)ccnc2c1 (stereo not drawn),286,1260,487,> 200,122,
Clc1ccc2c(Nc3cccc(C(c4nnn[nH]4)N4CCOCC4)c3)ccnc2c1 (stereo not drawn),2070,1970,1390,,,
CC[C@H]1CN2CCc3cc(OC)c(OC)cc3[C@@H]2C[C@@H]1C[C@H]1NCCc2cc(OC)c(OC)cc21 [EMETINE],,,,,,129

# Reference: ChEMBL document CHEMBL2412968, “Tetrazole-based deoxyamodiaquines: synthesis, ADME/PK profiling and pharmacological evaluation as potential antimalarial agents” (Bioorg Med Chem, 2013)
